Laboratory results as given in ChEMBL document CHEMBL3232765, “Anti-mycobacterial activity of 1,3-diaryltriazenes” (Eur J Med Chem, 2014).
Activity calls are given as the source filed them. No cut-off for these calls is given here.

System: Mycobacterium tuberculosis
Assay: Antimycobacterial activity against multidrug-resistant Mycobacterium tuberculosis LAM-1 at 0.73 uM after 4 to 6 days by BACTEC MGIT 960 assay
Type: functional, organism-based

NNC(=O)c1ccncc1 [ISONIAZID]
Activity: inactive
